Experimental data published in patent US20180070870A1, “Autonomous Sweat Extraction and Analysis Using a Fully-Integrated Wearable Platform” (The Board of Trustees of the Leland Stanford Junior …, priority 2016, published 2018).

System: sweat secretion
Test: Induced sweat rate profiles stimulated by cholinergic agonist hydrogels under iontophoresis, measured with a sweat rate sensor
Type: in vivo, human
Settings: iontophoresis 2 mA for 5 minutes
Protocol: Bars represent values for response latency (time in seconds to onset of secretion from start of iontophoresis), response duration (total time in minutes of secretion above baseline, measurements stopped at 60 minutes), peak secretory rate in response to stimulation, time to reach peak secretory rate and time spent secreting at the peak rate. […] By modulating the formulation of the compounds that are loaded into the iontophoresis hydrogel, we can achieve different patterns of sweat secretion rate. We characterized the induced sweat rate profiles as stimulated by three different cholinergic agonist hydrogels (acetylcholine, methacholine and pilocarpine) each at two different concentrations. For this characterization step, 2 mA of current over duration of 5 minutes was applied using a pair of ring-shaped electrodes (WR Medical Electronics Co., MN, area: 4.3 cm2), with the sweat rate sensor (Q-sweat, WR Medical Electronics Co., MN) mounted on the positive electrode, sealing the stimulated area. […] This pattern is suitable for the case where periodic sweat sampling with short intervals is required. […] To retrieve the induced sweat rate information, immediately after each stimulation step, the stimulated area was wiped dry and sealed with the sweat rate sensor. After each characterization step, the same pair of hydrogels were reused for the subsequent stimulation. […]

Compound | share of the secretion period spent at about the peak rate
CC(=O)OC(C)C[N+](C)(C)C (centres unmarked) [methacholine] | about half
CC[C@@H]1C(=O)OC[C@@H]1Cc1cncn1C [pilocarpine] | about half
